Source: patent US9061984B2 (University of Louisville Research Foundation, Inc., priority 2008, dated 2015)
Converted amounts (≈) assume the structure as drawn.

Assays:
MCF-7 cells = experiment: Cell growth inhibition bioassay (sulforhodamine B); assay type: cell-based, human; conditions: 48 h, SRB
Outline: (§1)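 Growth inhibition was measured colorimetrically with sulforhodamine B staining and expressed as percent inhibition relative to solvent-treated controls. Cell lines were human: MCF-7 breast adenocarcinoma, DU145 and PC3 prostate carcinoma/adenocarcinoma, H460 large cell lung cancer.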

DU145 cells = experiment: Cell growth inhibition bioassay (sulforhodamine B); assay type: cell-based, human; conditions: 48 h, SRB
Outline: as §1

HT-29 cells = experiment: Cell growth inhibition bioassay (sulforhodamine B); assay type: cell-based, human; conditions: 48 h, SRB
Outline: (§2)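 Cells were exposed to compound alongside matched solvent controls, then stained with sulforhodamine B. Percent growth inhibition was calculated from dye absorbance against the control.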

H460 cells = experiment: Cell growth inhibition bioassay (sulforhodamine B); assay type: cell-based, human; conditions: 48 h, SRB
Outline: as §2

K562 cells = experiment: Cell growth inhibition bioassay (sulforhodamine B); assay type: cell-based, human; conditions: 48 h, SRB
Outline: as §2

M-14 cells = experiment: Cell growth inhibition bioassay (sulforhodamine B); assay type: cell-based, human; conditions: 48 h, SRB
Outline: as §2

VERO cells [1] = system: VERO cells
peritoneal macrophages = experiment: Toxicity to peritoneal macrophages (Trypan Blue count); assay type: cell-based, BALB/C mouse
3T3 cells = experiment: Cell growth inhibition bioassay (sulforhodamine B); assay type: cell-based, mouse; conditions: 48 h, SRB
Outline: as §2

VERO cells [2] = experiment: Cell growth inhibition bioassay (sulforhodamine B); assay type: cell-based, African Green Monkey; conditions: 48 h, SRB
Outline: as §2

M. tuberculosis H37Rv = experiment: Conventional aerobic (MABA) culture assay, luminescence MIC; assay type: cell-based, Mycobacterium tuberculosis
[3] = system: axenic amastigotes of L. amazonensis (strain MHOM/BR/76/LTB-012); conditions: read-out: L. amazonensis IC50; Table 8b
[4] = target: Trypanosoma cruzi (Tulahuen C4); experiment: In vitro anti-T. cruzi activity (β-galactosidase CPRG colorimetric assay in VERO monolayer); assay type: cell-based
in vitro = conditions: African green monkey

CC(C)=NNc1ncnc2sc3c(c12)CCCC3 [II-44]
GI50 in indicated cell line: MCF-7 (MCF-7 cells): 3.2 µg/mL (≈ 12.3 µM)
GI50 in indicated cell line: DU145 (DU145 cells): 3.0 µg/mL (≈ 11.5 µM)
GI50 in indicated cell line: HT-29 (HT-29 cells): 8.6 µg/mL (≈ 33 µM)
GI50 in indicated cell line: H460 (H460 cells): 2.4 µg/mL (≈ 9.22 µM)
GI50 in indicated cell line: K562 (K562 cells): 3.5 µg/mL (≈ 13.4 µM)
GI50 in indicated cell line: M-14 (M-14 cells): 6.1 µg/mL (≈ 23.4 µM)
Cytotoxicity VERO Lab B (VERO cells [1]): 10.0
IC50 (peritoneal macrophages): 62 µM
GI50 in indicated cell line: 3T3 (3T3 cells): <0.98 µg/mL
GI50 in indicated cell line: VERO (VERO cells [2]): 3.7 µg/mL (≈ 14.2 µM)
MIC MABA (M. tuberculosis H37Rv; aerobic, 7 days, H37Rv): 62.4 µg/mL (≈ 240 µM)
Cytotoxicity VERO cell (VERO cell): 32.7 µg/mL
IC50 [3]: 10.6 µM
T. cruzi IC50 Lab A ([4]; Lab A): 3.2 µg/mL
T. cruzi IC50 Lab B ([4]; Lab B): 3.7 µg/mL

CO[C@H]1/C=C/O[C@@]2(C)Oc3c(C)c(O)c4c(O)c(c(/C=N/N5CCN(C)CC5)c(O)c4c3C2=O)NC(=O)/C(C)=C\C=C\[C@H](C)[C@H](O)[C@@H](C)[C@@H](O)[C@@H](C)[C@H](OC(C)=O)[C@@H]1C [Rifampin, reference compound]
MIC (M. tuberculosis H37Rv; Mycobacterium tuberculosis, 168 h, aerobic, 7 days, H37Rv): 0.09 µg/mL (≈ 0.109 µM)
Selectivity Index H37Rv (M. tuberculosis H37Rv; VERO vs MABA MIC): 1025.8
IC50 (in vitro): 97.2 µg/mL (≈ 118 µM)
